Read-outs that look alike come from different tables or passages of the source.
Columns and labels:
[1] = test system: advanced, rapidly progressive, treatment-refractory solid tumor cancers; details: cited from earlier work
MMP-7 = molecular target: T1, MMP-7 (Homo sapiens, UniProt P09237); test: In vitro metalloprotease inhibition, pH 7.5 with 0.02% 2-mercaptoethanol; assay type: biochemical; details: selectively inhibit one or more of MMP-2, MMP-9 and MMP-13
T1 construct: made in house; host or cells: E. coli (clone a gift of Dr. Steven Shapiro, Washington University)
T1 sequence (P09237 95-267): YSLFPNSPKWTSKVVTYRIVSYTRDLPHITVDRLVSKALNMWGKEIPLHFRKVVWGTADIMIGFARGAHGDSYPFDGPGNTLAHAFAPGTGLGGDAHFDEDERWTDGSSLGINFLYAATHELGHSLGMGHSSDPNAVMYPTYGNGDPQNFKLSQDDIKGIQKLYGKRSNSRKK
Experimental: The compounds prepared in the manner described in the Examples above were assayed for activity by an in vitro assay. […] Briefly, 4-aminophenylmercuric acetate (APMA) or trypsin-activated MMPs were incubated with various concentrations of the inhibitor compound at room temperature for 5 minutes.
MMP-1 expressed in transfected HT-1080 cells was provided by Dr. Harold Welgus of Washington University, St. Louis, Mo. The enzyme was also activated using APMA and was then purified over a hydroxamic acid column. Dr. Welgus also provided transfected HT-1080 cells that expressed MMP-9. Transfected cells that expressed MMP-2 were provided by Dr. Gregory Goldberg, also of Washington University. Studies with MMP-7 were carried out at pH 7.5 in the presence of 0.02% 2-mercaptoethanol using conditions otherwise similar to those used for the other enzymes. […]
In the absence of inhibitor activity, a fluorogenic peptide was cleaved at the gly-leu peptide bond, separating the highly fluorogenic peptide from a 2,4-dinitrophenyl quencher, resulting in an increase of fluorescence intensity (excitation at 328 nm/emission at 415 nm). Inhibition was measured as a reduction in fluorescent intensity as a function of inhibitor concentration, using a Perkin Elmer L550 plate reader. The IC50 values were calculated from those values. […]

MMP-2 = molecular target: T2, MMP-2 (Homo sapiens, UniProt P08253); test: biochemical; details: read-out: MMP-2 IC50
T2 construct: made in house; provided by Dr. Gregory Goldberg, Washington University
T2 sequence (P08253 110-660): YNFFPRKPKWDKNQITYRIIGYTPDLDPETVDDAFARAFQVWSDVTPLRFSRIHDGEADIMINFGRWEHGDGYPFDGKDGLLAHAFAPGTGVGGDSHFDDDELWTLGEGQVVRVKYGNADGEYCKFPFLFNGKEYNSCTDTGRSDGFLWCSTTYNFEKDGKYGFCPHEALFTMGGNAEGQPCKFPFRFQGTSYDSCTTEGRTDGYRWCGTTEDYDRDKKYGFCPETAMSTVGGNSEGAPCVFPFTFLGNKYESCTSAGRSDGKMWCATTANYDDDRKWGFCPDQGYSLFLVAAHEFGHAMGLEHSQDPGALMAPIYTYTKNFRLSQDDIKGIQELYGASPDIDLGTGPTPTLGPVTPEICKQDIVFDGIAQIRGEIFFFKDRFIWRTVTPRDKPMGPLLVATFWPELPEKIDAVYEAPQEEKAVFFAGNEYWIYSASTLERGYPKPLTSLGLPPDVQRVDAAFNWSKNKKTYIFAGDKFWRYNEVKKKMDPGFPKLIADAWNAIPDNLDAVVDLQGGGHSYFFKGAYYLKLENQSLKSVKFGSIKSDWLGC
How it was run: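 APMA- or trypsin-activated human MMPs (MMP-1 from transfected HT-1080 cells, MMP-2 from transfected cells) preincubated with inhibitor in 1% DMSO at room temperature, then 4 μM MCA-Pro-Leu-Gly-Leu-Dpa-Ala-Arg-NH2 added in Tris/NaCl/CaCl2 buffer pH 7.5. IC50 from fluorescence reduction versus inhibitor concentration.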

MMP-1 = molecular target: T3, MMP-1 (Homo sapiens, UniProt P03956); test: biochemical; details: read-out: MMP-1 IC50
T3 construct: made in house; host or cells: transfected HT-1080 cells (provided by Dr. Harold Welgus, Washington University)
T3 sequence (P03956 100-469): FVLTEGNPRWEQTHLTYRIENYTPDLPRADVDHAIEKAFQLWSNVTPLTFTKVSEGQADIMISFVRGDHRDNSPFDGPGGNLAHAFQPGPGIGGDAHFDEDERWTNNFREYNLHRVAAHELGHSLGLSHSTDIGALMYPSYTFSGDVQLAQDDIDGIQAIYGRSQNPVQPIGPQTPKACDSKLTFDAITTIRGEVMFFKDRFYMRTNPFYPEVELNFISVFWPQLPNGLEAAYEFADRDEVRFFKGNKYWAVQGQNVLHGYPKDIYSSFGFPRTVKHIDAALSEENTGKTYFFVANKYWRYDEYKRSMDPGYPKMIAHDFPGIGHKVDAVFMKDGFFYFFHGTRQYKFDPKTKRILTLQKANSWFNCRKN
How it was run: (§1)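 Assay buffer 100 mM Tris-HCl, 100 mM NaCl, 10 mM CaCl2, pH 7.5. Activated MMP + inhibitor, 5 min RT; then methoxycoumarin peptide substrate, 4 μM final. Readout fluorescence; IC50 calculated.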

MMP-13 = molecular target: T4, MMP-13 (Homo sapiens, UniProt P45452); test: biochemical; details: read-out: MMP-13 IC50
T4 construct: made in house; host or cells: baculovirus / insect cells
How it was run: as §1

[2] = recombinant human MMP-2, MCA peptide substrate 4 μM, pH 7.5, room temperature
[3] = recombinant human MMP-1, MCA peptide substrate 4 μM, pH 7.5, room temperature
[4] = recombinant human MMP-13, MCA peptide substrate 4 μM, pH 7.5, room temperature

Row | IC50 (MMP-2; [2]) [nM] | IC50 (MMP-1; [3]) [nM] | IC50 (MMP-13; [4]) [nM] | Molecule | also measured
1 | – | – | – | CNC(=O)[C@@H](NC(=O)[C@H](CC(C)C)[C@H](O)C(=O)NO)C(C)(C)C [marimastat, Marimastat] | most common drug-related toxicity ([1]; clinical trials in patients): musculoskeletal pain and stiffness; cancer-specific antigens used as surrogate markers for biological activity ([1]; patients with colorectal, pancreatic, ovarian, prostate cancers): dose-related reduction in the rise of cancer-specific antigens
2 | – | – | – | COc1ccccc1C1CCN(c2ccc(S(=O)(=O)C3(C(=O)NO)CCSCC3)cc2)CC1 [Example 153] | IC50 (MMP-2): 5000 nM; IC50 (MMP-1): > 10000 nM; IC50 (MMP-13): 50 nM
3 | 41.8 | > 10000 | 5 | C/C=C/CC(=O)C1CCN(c2ccc(S(=O)(=O)C3(C(=O)NO)CCOCC3)cc2)CC1 [Example 761] | –
4 | 94 | > 10000 | 2.4 | COCc1ccc(COC2CCN(c3ccc(S(=O)(=O)C4(C(=O)NO)CCOCC4)cc3)CC2)cc1 [Example 522] | –
5 | 4.2 | > 10000 | 8 | Cc1cccc(OC2CCN(c3ccc(S(=O)(=O)C4(C(=O)NO)CCOCC4)cc3)CC2)c1 [Example 485] | –
6 | 0.2 | > 10000 | 0.5 | O=C(NO)C1(S(=O)(=O)c2ccc(Oc3ccc(OC(F)(F)F)cc3)cc2)CCS(=O)(=O)CC1 [Example 157] | –
7 | < 0.1 | > 7300 | 0.3 | O=C(NO)C1(S(=O)(=O)c2ccc(Oc3ccc(OC(F)(F)F)cc3)cc2)CCN(S(=O)(=O)c2ccccc2)CC1 [Example 194] | –
8 | 22.7 | > 10000 | 4.3 | O=C(NO)C1(S(=O)(=O)c2ccc(OC3CCC(OCc4cccc(Cl)c4)C3)cc2)CCOCC1 (stereo not shown) [Example 669] | –
9 | 0.2 | > 10000 | 1.2 | CCCN(CCCCC(=O)N1CCC(C(=O)NO)(S(=O)(=O)c2ccc(Oc3ccc(C(F)(F)F)cc3)cc2)CC1)CC1CC1 [Example 346] | –

Row | Molecule | IC50 (MMP-2; [2]) [nM] | IC50 (MMP-1; [3]) [nM] | IC50 (MMP-13; [4]) [nM] | also measured
10 | N#Cc1cccc(S(=O)(=O)N2CCN(c3ccc(S(=O)(=O)C4(C(=O)NO)CCOCC4)cc3)CC2)c1 [Example 672] | 60 | > 10000 | 6.7 | inhibition of MMP-7 compared with MMP-2, MMP-9 and MMP-13 (selectivity) (MMP-7): substantially less inhibition
11 | Cn1cnc(S(=O)(=O)N2CCN(c3ccc(S(=O)(=O)C4(C(=O)NO)CCOCC4)cc3)CC2)c1 [Example 684] | 1450 | > 10000 | 60 | inhibition of MMP-7 compared with MMP-2, MMP-9 and MMP-13 (selectivity) (MMP-7): substantially less inhibition
12 | O=C(NO)C1(S(=O)(=O)c2ccc(N3CCc4ccccc4C3)cc2)CCN(C2CC2)CC1 [Example 455] | 26.8 | > 10000 | 6.3 | –
13 | Tetrahydro-4-[[4-(pentaflourooxy)phenyl]sulfonyl]-2H-thiopyran-4-carboxamide [Example 225] | 41.8 | > 10000 | 180 | –
14 | CC1CC(C)CN(C(=O)C2CCN(c3ccc(S(=O)(=O)C4(C(=O)NO)CCN(C(=O)CN(C)C)CC4)cc3)CC2)C1 (stereo not shown) [Example 294] | > 10000 | > 1000 | 59.1 | –
